Where “and” joins values, the source holds several entries; their conditions need not be identical. Identical values can stand only once.
Assay: xn = mol fraction of the nth substance listed

COCCOC + CCCCCCO
101 kPa
Details	viscosity [mPa·s]
293.15 K, x1 = 0.03644	4.556
293.15 K, x1 = 0.07492	3.875
293.15 K, x1 = 0.1757	2.656
293.15 K, x1 = 0.2488	2.089
293.15 K, x1 = 0.3376	1.607
293.15 K, x1 = 0.4282	1.265
293.15 K, x1 = 0.5085	1.055
293.15 K, x1 = 0.5954	0.873
293.15 K, x1 = 0.6767	0.743
293.15 K, x1 = 0.7648	0.633
293.15 K, x1 = 0.8067	0.59
293.15 K, x1 = 0.8909	0.547
293.15 K, x1 = 0.9608	0.506
303.15 K, x1 = 0.03689	3.354
303.15 K, x1 = 0.08234	2.83
303.15 K, x1 = 0.1774	2.045
303.15 K, x1 = 0.2433	1.681
303.15 K, x1 = 0.3417	1.289
303.15 K, x1 = 0.4228	1.068
303.15 K, x1 = 0.5142	0.867
303.15 K, x1 = 0.5898	0.744
303.15 K, x1 = 0.6726	0.638
303.15 K, x1 = 0.7604	0.55
303.15 K, x1 = 0.8168	0.505
303.15 K, x1 = 0.8829	0.478
303.15 K, x1 = 0.9497	0.439
313.15 K, x1 = 0.02681	2.68
313.15 K, x1 = 0.04032	2.555
313.15 K, x1 = 0.07518	2.269
313.15 K, x1 = 0.1706	1.69
313.15 K, x1 = 0.3414	1.091
313.15 K, x1 = 0.4234	0.908
313.15 K, x1 = 0.5104	0.758
313.15 K, x1 = 0.5912	0.651
313.15 K, x1 = 0.6717	0.565
313.15 K, x1 = 0.7706	0.482
313.15 K, x1 = 0.8138	0.467
313.15 K, x1 = 0.8786	0.432
313.15 K, x1 = 0.9463	0.397

COc1ccccc1N + ClC(Cl)(Cl)Cl
viscosity [mPa·s], 100 kPa
Details	x2 = 0.0821	x2 = 0.1726	x2 = 0.2547	x2 = 0.3403	x2 = 0.4788	x2 = 0.5789	x2 = 0.6781	x2 = 0.7641	x2 = 0.8447
298.15 K	5.011	4.611	4.247	3.866	3.249	2.8	2.355	1.967	1.603
303.15 K	4.596	4.234	3.904	3.559	2.996	2.587	2.179	1.824	1.489
308.15 K	4.218	3.892	3.593	3.28	2.768	2.394	2.02	1.694	1.385
313.15 K	3.917	3.619	3.346	3.057	2.585	2.239	1.892	1.587	1.299
318.15 K	3.643	3.371	3.121	2.856	2.42	2.099	1.776	1.491	1.221

COc1ccccc1N + CCC(=O)O
viscosity [mPa·s], 100 kPa
Details	x1 = 0.1097	x1 = 0.183	x1 = 0.2628	x1 = 0.3502	x1 = 0.4802	x1 = 0.5897	x1 = 0.6693	x1 = 0.7549	x1 = 0.8961
303.15 K	1.402	1.697	2.017	2.367	2.884	3.317	3.631	3.967	4.518
308.15 K	1.3	1.575	1.873	2.198	2.679	3.082	3.373	3.685	4.197
313.15 K	1.197	1.452	1.727	2.028	2.472	2.844	3.113	3.401	3.873
318.15 K	1.097	1.333	1.587	1.865	2.275	2.619	2.867	3.132	3.567

C[C@H](N)C(=O)[O-].[Na+] + O
viscosity [mPa·s], 101 kPa
Details	x1 = 0.004484	x1 = 0.008927	x1 = 0.01333	x1 = 0.0177	x1 = 0.02202	x1 = 0.02631	x1 = 0.03478	x1 = 0.0431	x1 = 0.05127
293.15 K	1.118	1.239	1.371	1.526	1.683	1.856	2.272	2.747	3.244
303.15 K	0.886	0.979	1.077	1.192	1.305	1.436	1.726	2.062	2.399
313.15 K	0.722	–	0.871	0.96	1.046	1.144	1.372	1.605	1.851
323.15 K	0.602	0.662	0.722	0.791	0.859	0.935	1.1	1.286	1.477

CCC(C)=O + CC(C)O
101 kPa
Details	viscosity [mPa·s]
308.15 K, x1 = 0.1282	1.095
313.15 K, x1 = 0.0595	1.165

COC(C)=O + CC#N
303.15 K, 101.33 kPa
Details	viscosity [mPa·s]
x2 = 0.1087	0.3472
x2 = 0.1994	0.3482
x2 = 0.3009	0.3485
x2 = 0.4037	0.3481
x2 = 0.4994	0.3474
x2 = 0.5996	0.3461
x2 = 0.7019	0.3429
x2 = 0.7979	0.3376
x2 = 0.9006	0.3322

CCCCCCOC(C)=O + CCCCCCO
viscosity [mPa·s], 101.33 kPa
Details	x1 = 0.0998	x1 = 0.2013	x1 = 0.3012	x1 = 0.4056	x1 = 0.4937	x1 = 0.6002	x1 = 0.7021	x1 = 0.8045	x1 = 0.9018
293.15 K	4.012	3.281	2.721	2.266	1.964	1.677	1.464	1.299	1.176
303.15 K	3.073	2.502	2.065	1.71	1.474	1.249	1.083	0.954	0.858
313.15 K	2.301	1.899	1.584	1.332	1.164	1.005	0.887	0.795	0.726

COCCOC + CO
298.15 K, 101 kPa
Details	viscosity [mPa·s]
x1 = 0.03801	0.5333
x1 = 0.08163	0.5252
x1 = 0.1322	0.5142
x1 = 0.1916	0.4946
x1 = 0.2623	0.479
x1 = 0.3478	0.4627
x1 = 0.4534	0.4496
x1 = 0.5871	0.4355
x1 = 0.7619	0.4209

COC(C)=O + CCOC(C)=O
viscosity, 101 kPa
Details	298.15 K	313.15 K
x1 = 0.0544	0.432 mPa·s	0.372 mPa·s
x1 = 0.0916	0.429 mPa·s	0.37 mPa·s
x1 = 0.2242	0.418 mPa·s	0.361 mPa·s
x1 = 0.3041	0.412 mPa·s	0.357 mPa·s
x1 = 0.3995	0.405 mPa·s	0.351 mPa·s
x1 = 0.5024	0.399 mPa·s	0.346 mPa·s
x1 = 0.5482	0.396 mPa·s	0.344 mPa·s
x1 = 0.6054	0.392 mPa·s	0.341 mPa·s
x1 = 0.7024	0.387 mPa·s	0.337 mPa·s
x1 = 0.8025	0.381 mPa·s	0.333 mPa·s
x1 = 0.9028	0.377 mPa·s	0.33 mPa·s
x1 = 0.9548	0.376 mPa·s	0.33 mPa·s
x2 = 0.07815	0.3638 mPa·s	–
x2 = 0.189	0.3713 mPa·s	–
x2 = 0.3264	0.3801 mPa·s	–
x2 = 0.4453	0.3876 mPa·s	–
x2 = 0.5532	0.3943 mPa·s	–
x2 = 0.7914	0.4098 mPa·s and 0.4098 mPa·s	–
x2 = 0.8752	0.4158 mPa·s	–
